Measurements published in patent publication US10197557B2, “Small molecules for endothelial cell activation” (The Regents of the University of California, priority 2011, dated 2019).

Tested on: Primary human umbilical endothelial cells (EC)
Test: Biological platform: EC-monocyte co-culture, flow cytometry profiling (CD40, CD209, CD163) across 10 parameters
Type: cell-based
Conditions: Prestwick library of FDA approved compounds (FIG. 1B)
Method: The biological platform or assay described herein can be embodied in different ways (see, e.g., FIGS. 1 and 9). An embodiment of the biological platform of invention is provided below: • 1. Primary human umbilical endothelial cells (EC) are adhered in 96 or 384-well plates at confluency for 2 hours. • 2. Control stimuli (or compounds of interest) are added to EC for 5 hours. • 3. Compounds are removed, EC washed, and primary human peripheral blood monocytes are added. • 4. After 24 hours, 25 μl of supernatant is removed for MIP1α and MIP1β analysis. • 5. After 42-48 total hours of co-culture, cells are harvested for flow cytometry. • 6. Cells are labeled with: CD40, CD209, and CD163. • a. Parameter 1: Gate on EC/monocytes by using FSC vs SSC on whole co-culture population • b. Parameter 2: Use SSC vs. CD40 to separate monocytes from EC. Note: loss of EC population reflects compound toxicity. • c. Parameter 3: Gate on CD40+ monocytes • d. Parameter 4: Determine CD40 MFI on CD40+ macrophages • e. Parameter 5: Determine CD209 MFI on CD40+ macrophages • f. Parameter 6: Determine CD163 MFI on CD40+ macrophages • g. Parameter 7: Subtract vehicle control MFIs from each sample of interest. In the example below (FIGS. 2A and 2B), EC stimulation with IFNγ may promote EC-triggered MΦ with CD40 MFI=40, CD209 MFI=60, CD163=10. DMSO treated EC promote MΦ with CD40=20, CD209 MFI=30, and CD163=100. […]

Structure (SMILES): CN(C)C(=N)N=C(N)N [metformin]
- position in the profile of pro-inflammatory (enhanced) and anti-inflammatory (dampening) compounds: dampening subset
